The source of these data is paper PMC8915582, “Validated DBS method for filgotinib quantitation in rat dried blood spots and its application to a pharmacokinetic study in rats” (ADMET & DMPK, 2020).

What is called Cmax is the maximum level reached in the sampled fluid or tissue. In general, IC50 refers to the concentration that inhibits the measured activity by half. For orientation: AUC(0-inf) means the area under the concentration-time curve extrapolated to infinity. A higher AUC(0-inf) goes with more exposure. Broadly, the half-life is the time needed for the level to fall by half in the phase considered. By bioavailability is commonly meant the share of a dose that reaches the circulation, judged against a reference dose that is usually intravenous. The Tmax is the time from dosing to the highest level.

Data set [1] relates to rheumatoid arthritis. On the set-up: method as in PMID 26994322. The following applies: approved pan-JAK inhibitors, moderate to severe rheumatoid arthritis; cited from earlier work.
The nature of data set [2]: Stability of primary stock solutions in DMSO. Format: physicochemical. The following applies: primary stock in DMSO stored at -20 °C. On the procedure:
Two separate primary stock solutions of filgotinib were prepared at 1670 μg/mL in DMSO. Appropriate secondary and working stocks of filgotinib were prepared from primary stock by successive dilution of primary stock with methanol:water (80:20, v/v) to prepare the calibration curve (CC) and quality controls (QCs). The IS primary stock solution was made in DMSO at a concentration of 1000 μg/mL, which was diluted with methanol to 500 ng/mL and subsequently used as IS working stock solution. […] Working stock solutions were stored at 4 °C for 25 days.

Details of data set [3]: method as in Dixit et al. (2020) [10]. The following applies: rat, plasma, values in parentheses, ref Dixit et al. (2020) [10], cited from earlier work.
Data set [4] has as its system JAK1. The following applies: cited from earlier work.
For data set [5], the system named is JAK2. The following applies: JAK1 over JAK2; cited from earlier work.
For data set [6], the system named is collagen-induced arthritis model. On the set-up: method as in PMID 24006460. The following applies: post oral administration in rodents; cited from earlier work.
In data set [7] the test system is rheumatoid arthritis patients. On the set-up: method as in PMID 29566740. The following applies: monotherapy at 100 or 200 mg once daily or with methotrexate; cited from earlier work.
The nature of data set [8]: Pharmacokinetic study in rats (oral and intravenous), filgotinib quantified from dried blood spots by LC-MS/MS. The following applies: male, Sprague Dawley, whole blood (dried blood spots), rat, DBS blood. Format: in vivo. On the procedure: Freshly drawn rat blood was used to prepare the DBS cards. With the help of a calibrated pipette, 25 μL of the respective spiked CC/QC blood or whole blood collected from the pharmacokinetic study (post administration of filgotinib by intravenous and oral routes) was sampled on DBS card. Spiked cards were allowed to dry at ambient room temperature for 3 h and stored appropriately in a sealed bag with desiccant in a desiccator.
Using a hole puncher (Harri-Micro-Punch®), 3 mm diameter disc was punched from the center of each DBS (FTA DMPK-C Card) card directly into micro-centrifuge tubes. To each micro-centrifuge tube, 200 μL of 0.2% formic acid enriched with 100 ng/mL of IS was added, thereafter the contents were vortex mixed for 5 min (Thermomixer®, Eppendorf) and sonicated (Elmasonic S300 H) for 15 min at ambient room temperature. After sonication, to the same micro-centrifuge, 1.0 mL of ethyl acetate was added and the mixtures were vortexed further for 3 min. The samples were centrifuged at 14,000 rpm for 3 min. Clear organic layer (800 μL) was pipetted out after centrifugation and dried under gentle stream of nitrogen (Turbovap®, Zymark®,Kopkinton, MA, USA) at 50 °C. The residue was reconstituted with 200 μL of 0.2% formic acid in acetonitrile and 150 μL clear supernatant was aliquoted into a HPLC vial and 5.0 μL was injected onto the column for LC-MS/MS analysis.
All the animal experiments were approved by Institutional Animal Ethical Committee (IAEC/JDC/2019/189R). Male Sprague Dawley rats (n=8) were procured from Vivo Biotech, Hyderabad, India. The animals were housed in Jubilant Biosys animal house facility in a temperature (22 ± 2 °C) and humidity (30-70%) controlled room (15 air changes/hour) with a 12:12 h light:dark cycles, had free access to rodent feed (Altromin Spezialfutter GmbH & Co. KG., Im Seelenkamp 20, D-32791, Lage, Germany) and water for one week before using for experimental purpose. Following ~12 h fast (during the fasting period animals had free access to water) animals were divided into two groups having four rats in each group. Group I animals (205-210) received filgotinib orally as a suspension formulation (prepared using Tween-80 and 0.5% methyl cellulose) at 10 mg/kg (strength: 1.0 mg/mL; dose volume: 10 mL/kg), whereas Group II animals (215-225 g) received filgotinib intravenously (5% DMSO, 5% Solutol:absolute alcohol (1:1, v/v) and 90% of normal saline; strength: 0.5 mg/ml; dose volume: 4 ml/kg) at 2.0 mg/kg dose. Post-dosing serial blood samples (50 μL) were collected through retro-orbital plexus into polypropylene tubes containing K2.EDTA solution as an anti-coagulant at 0.25, 0.5, 1, 2, 4, 8, 10, 12 and 24 h (for oral study) and 0.083, 0.25, 0.5, 1, 2, 4, 8 and 24 h (for intravenous study). Animals were allowed to access feed 2 h post-dosing.
Blood concentration-time data of filgotinib was analyzed by non-compartmental method and the relevant pharmacokinetic parameters namely AUC0-∞ (area under the blood concentration-time curve from time zero to infinite time), C0 (extrapolated blood concentration at time zero), Cmax (maximum blood concentration), Tmax (time to reach Cmax), Vd (volume of distribution), CL (clearance) and t½ (terminal half-life) were calculated using Phoenix WinNonlin software (version 8.1; Pharsight Corporation, Mountain View, CA). Absolute oral bioavailability (F) was calculated using this formula [Dose (i.v.) × AUC(0-∞)oral / Dose (oral) × AUC(0-∞)i.v.] × 100.

Where two headings read alike, the source gives them in different places.

Consider `C[C@@H]1CCN(C(=O)CC#N)C[C@@H]1N(C)c1ncnc2[nH]ccc12` [Tofacitinib, tofacitinib], for which the toxicities entry in data set [1] is “dose-related toxicities”. The “time primary stock solution found to be stable” value in data set [2] is 50 days.
On to `CCS(=O)(=O)N1CC(CC#N)(n2cc(-c3ncnc4[nH]ccc34)cn2)C1` [baricitinib], for which, in data set [1], the toxicities result is recorded as “dose-related toxicities”.
As for `O=C(Nc1nc2cccc(-c3ccc(CN4CCS(=O)(=O)CC4)cc3)n2n1)C1CC1` [filgotinib], in data set [3] (intravenous, 2.0 mg/kg), the “AUC(0-∞)” value is […], the C0 was […], the CL was […] and the T1/2 is […]. The Vd in data set [3] (intravenous, 2.0 mg/kg) is on record as 5.41 ± 0.77 L/kg. In data set [3] (oral, 10 mg/kg), the “AUC(0-∞)” value is […], the Cmax was […], the “F (absolute oral bioavailability)” value is on record as 36.3% and the T1/2 was […]. The IC50 in data set [4] was […]. Besides, in data set [5], the “selectivity over JAK2” value is […]. Moreover, the “disease progression in a collagen-induced arthritis model” value in data set [6] is listed as “dose-dependent reduction of disease progression”. In data set [7], the “tolerability, efficacy and safety in Phase-3 clinical trials” value was “well tolerated, showed efficacy and was found to be safe”. For the same compound, in data set [8] (intravenous, 2.0 mg/kg), the area under the curve AUC(0-inf) worked out at […], the Vd is […], the clearance was determined as […] and the half-life is 211 ± 13.8 min. The C0 in data set [8] (intravenous, 2.0 mg/kg, extrapolated concentration at time zero) is […]. For the same compound, the bioavailability in data set [8] (oral 10 mg/kg vs intravenous 2.0 mg/kg, read-out: F (absolute oral bioavailability)) came to 42.5%. In data set [8] (oral, 10 mg/kg), the AUC(0-inf) worked out at […], the peak level (Cmax) was […], the time of peak concentration (Tmax) was found to be […] and the half-life was […]. In addition, the “time primary stock solution found to be stable” value in data set [2] is recorded as […].
